From paper PMC10457369, “Novel VEGFR2 inhibitors with thiazoloquinoxaline scaffold targeting hepatocellular carcinoma with lower cardiotoxic impact” (Scientific Reports, 2023)
Like-named read-outs stand apart in the source and are kept apart here. Each block holds one compound with its values, some of them ahead of it.

Tests used:
VEGFR-2 = molecular target: T1, VEGFR-2 (Homo sapiens, UniProt P35968); experiment: In-vitro VEGFR-2 kinase assay (BPS Bioscience kit, Kinase-Glo MAX); assay type: biochemical; settings: mean ± S.D of three experiments
T1 construct: purchased BPS Bioscience 40325
T1 sequence (P35968 20-1356): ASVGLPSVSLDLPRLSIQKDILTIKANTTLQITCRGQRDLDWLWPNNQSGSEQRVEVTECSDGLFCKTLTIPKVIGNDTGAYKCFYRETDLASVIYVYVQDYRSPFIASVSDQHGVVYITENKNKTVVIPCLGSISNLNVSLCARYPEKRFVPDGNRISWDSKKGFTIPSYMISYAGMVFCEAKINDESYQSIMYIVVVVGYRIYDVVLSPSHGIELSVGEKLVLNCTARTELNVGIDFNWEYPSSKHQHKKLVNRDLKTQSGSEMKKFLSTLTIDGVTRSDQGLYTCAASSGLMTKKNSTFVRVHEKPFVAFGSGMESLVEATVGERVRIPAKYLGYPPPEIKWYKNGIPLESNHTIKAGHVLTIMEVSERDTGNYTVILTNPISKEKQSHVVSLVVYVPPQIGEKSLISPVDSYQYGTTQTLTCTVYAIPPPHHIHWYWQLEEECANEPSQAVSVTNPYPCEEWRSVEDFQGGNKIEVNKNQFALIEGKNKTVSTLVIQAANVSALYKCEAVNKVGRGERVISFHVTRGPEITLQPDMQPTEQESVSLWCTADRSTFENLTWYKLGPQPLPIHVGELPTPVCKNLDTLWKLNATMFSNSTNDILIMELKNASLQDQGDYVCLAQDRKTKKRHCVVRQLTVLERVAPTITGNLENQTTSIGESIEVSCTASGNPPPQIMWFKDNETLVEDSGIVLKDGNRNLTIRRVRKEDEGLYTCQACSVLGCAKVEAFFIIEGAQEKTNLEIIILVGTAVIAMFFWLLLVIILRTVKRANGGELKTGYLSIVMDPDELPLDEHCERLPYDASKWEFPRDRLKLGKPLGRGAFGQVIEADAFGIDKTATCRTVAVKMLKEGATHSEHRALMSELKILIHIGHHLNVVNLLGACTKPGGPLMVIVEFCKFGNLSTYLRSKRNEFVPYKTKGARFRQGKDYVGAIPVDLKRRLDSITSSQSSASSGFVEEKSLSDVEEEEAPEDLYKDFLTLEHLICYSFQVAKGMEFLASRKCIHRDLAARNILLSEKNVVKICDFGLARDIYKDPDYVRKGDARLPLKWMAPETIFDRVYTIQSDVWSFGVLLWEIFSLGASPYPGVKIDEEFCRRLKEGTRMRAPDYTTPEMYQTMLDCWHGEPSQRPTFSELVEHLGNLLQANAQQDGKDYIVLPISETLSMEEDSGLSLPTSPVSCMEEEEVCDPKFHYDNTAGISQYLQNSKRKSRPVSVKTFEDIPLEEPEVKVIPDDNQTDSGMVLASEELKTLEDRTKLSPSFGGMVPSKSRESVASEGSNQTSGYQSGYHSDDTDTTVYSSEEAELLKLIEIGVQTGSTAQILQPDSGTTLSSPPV
Protocol: The VEGFR-2 Kinase Assay Kit [Catalog no., 40325, BPS Bioscience®, USA] is designed to measure VEGFR-2 kinase activity for screening and profiling applications using Kinase-Glo® MAX as a detection reagent. The VEGFR-2 Kinase Assay Kit comes in a convenient 96-well format, with enough purified recombinant VEGFR2 enzyme and VEGFR2 substrate. The assay protocol was carried out according to manufacturer instructions.

HepG2 cells = experiment: HepG2 cell viability, SRB assay; assay type: cell-based; settings: Homo sapiens
Protocol: (§1) Hepatocellular carcinoma (HepG2) and rat heart/myocardium (H9C2) were obtained from Nawah Scientific Inc., (Mokattam, Cairo, Egypt). Cells were maintained in DMEM media supplemented with […] of streptomycin (3810–74-0), 100 units/mL of penicillin (113–98-4) and 10% of heat-inactivated fetal bovine serum in humidified, 5% (v/v) CO2 atmosphere at 37 °C.
(§2) Cell viability was assessed by SRB assay,[67]. Aliquots of 100 μL cell suspension (5 × 10^3 cells) were in 96-well plates and incubated in complete media for 24 h. […] After 72 h of drug exposure, cells were fixed by replacing media with 150 μL of 10% TCA (76–03-9) and incubated at 4 °C for 1 h. The TCA solution was removed, and the cells were washed 5 times with distilled water. Aliquots of 70 μL SRB (3520–42-1) solution (0.4% w/v) were added and incubated in a dark place at room temperature for 10 min. Plates were washed 3 times with 1% acetic acid (64–19-7) and allowed to air-dry overnight. Then, 150 μL of TRIS (77–86-1) (10 mM) was added to dissolve protein-bound SRB stain; the absorbance was measured at 540 nm using a BMG LABTECH®- FLUOstar Omegammicroplate reader (Ortenberg, Germany).

[1] = tested on: heart creatine kinase (CK); experiment: Heart creatine kinase (CK) ELISA in 8 Gy irradiated mice; assay type: in vivo; settings: 50 mg/kg p.o., 3 days
Protocol: (§3) Whole body γ-irradiation of mice was performed at the NCRRT using the Gamma Cell-40 biological irradiator with a Cesium-137 irradiator unit, produced by the atomic energy of Canada limited (Sheridan science and technology park, Mississauga, Ontario, Canada). Mice were exposed to an acute dose of 8 Gy according to Yoo et al..
(§4) A total 32 mice were randomly allocated into 4 groups as follows: 1- control normal [Control] mice received vehicle (10% DMSO). 2- Irradiated mice (8 Gy) received vehicle [IRR]. […] 4- Irradiated mice treated with Compound 4d (50 mg/ kg body wt./ p.o) for 3 successive days, [IRR + cmp 4d]. After 3 days, all animals were anesthetized with ketamine (80 mg/ kg), blood samples were collected via retro-orbital plexus, and then serum samples were separated after centrifugation. Heart and liver samples were dissected and rapidly washed with cool saline then heart samples were stored at -80 °C till assay time. One lobe of liver was embedded in 10% formalin for immunohistochemistry assay.
(§5) Heart tissues of mice were weighted and minced then homogenized in cold fresh lysis buffer, the homogenate was centrifuged for 5 min at 4000 rpm, and then the supernatant was used for assay. Cardiac contents of CK, TNF-α and Caspase-9 were measured according to manufacturer instructions using CK ELISA kit [catalog no. EK730963, AFG Bioscience®, USA], TNF-α ELISA kit [catalog no. SEA626Ra, Cloud-Clone Corp®, USA] and Caspase-9 ELISA kit [catalog no. E-EL-R02054, Elabsciense®, USA], respectively.

[2] = tested on: serum lactate dehydrogenase (LDH); experiment: Serum LDH in 8 Gy irradiated mice; assay type: in vivo; settings: 50 mg/kg p.o., 3 days
Protocol: as §3, §4
Serum LDH was estimated kinetically using Spectrum® coloring assay Kit [Egyptian company for biotechnology, SAE®, Egypt]. It was carried according to manufacturer's instructions; the values were expressed as IU/ml.

serum catalase = experiment: Serum catalase activity in 8 Gy irradiated mice; assay type: in vivo; settings: 50 mg/kg p.o., 3 days
Protocol: as §3, §4
Serum catalase was assessed colorimetrically in all groups according to manufacturer instructions using coloring endpoint kit [Biodiagnostic co.®, Egypt].

cardiac caspase-9 = experiment: Cardiac caspase-9 ELISA in 8 Gy irradiated mice; assay type: in vivo; settings: 50 mg/kg p.o., 3 days
Protocol: as §3, §4
as §5, with “SEA626Ra, Cloud-Clone Corp®, USA] and Caspase-9 ELISA kit [catalog no. E-EL-R02054, Elabsciense®, USA], respectively.” left out

cardiac TNF-α = experiment: Cardiac TNF-α ELISA in 8 Gy irradiated mice; assay type: in vivo; settings: in comparison to control irradiated group, 50 mg/kg p.o., 3 days
Protocol: as §3, §4
as §5, with “SEA626Ra, Cloud-Clone Corp®, USA] and Caspase-9 ELISA kit [catalog no. E-EL-R02054, Elabsciense®, USA], respectively.” left out

hepatic VEGF = experiment: Immunohistochemistry expression of VEGF in liver tissue of irradiated mice; assay type: in vivo; settings: 50 mg/kg p.o., 3 days, 8 Gy irradiated mice, vs irradiated animals
Protocol: as §3, §4
Immunohistochemical study was carried out on paraffin tissue sections prepared for the detection VEGF, liver tissue sections were incubated separately with anti- VEGF (Gene Tex, USA). The expression of each marker was visualized by the chromogen 3,3-diaminobenzidine tetrahydrochloridem (DAB, Sigma Chemical Co.).

H9C2 cells = experiment: H9C2 cardiomyocyte viability, SRB assay; assay type: cell-based, rat; settings: for IC50: 72 h, SRB
Protocol: as §1, §2

mice = settings: male, Swiss albino, mouse, in vivo, po, 14 days
Protocol: For the study of the compound 4d's oral toxicity, 30 male Swiss albino mice were used. They were randomly allocated into 5 groups; the first group of mice (n = 6) received a vehicle and was used as control, while the other four groups, each received a different acute dose of compound 4d dissolved in 0.05% Tween 80 (9005–65-6) (200, 500, 800, and 1000 mg/kg p.o.). Up to 14 days after treatment, clinical toxicity symptoms (death, more than 20% weight loss, diarrhea, lethargy, tremors, and convulsions) were noted.

[3] = 72 h, SRB, read-out: HepG2 IC50

melting point: 165 to 167 °C
IC50 (VEGFR-2): 0.169 ± 0.0074 µM
SMILES: NS(=O)(=O)c1ccc(N=c2[nH]c3nc4ccccc4nc3s2)cc1 [Compound 4a, 4-(Thiazolo[4,5-b]quinoxalin-2(3H)-ylideneamino)benzenesulfonamide]

melting point: 245 to 247 °C
IC50 (VEGFR-2): 0.132 ± 0.0057 µM
SMILES: CC(=O)NS(=O)(=O)c1ccc(N=c2[nH]c3nc4ccccc4nc3s2)cc1 [Compound 4b, N-((4-(Thiazolo[4,5-b]quinoxalin-2(3H)ylideneamino)phenyl)sulfonyl)-acetamide]

melting point: > 260 °C
IC50 (VEGFR-2): 0.254 ± 0.011 µM
SMILES: N=C(N)NS(=O)(=O)c1ccc(N=c2[nH]c3nc4ccccc4nc3s2)cc1 [Compound 4c, N-Carbamimidoyl-4-(thiazolo[4,5-b]quinoxalin-2(3H)-ylideneamino) benzene-esulfonamide]

SMILES: O=S(=O)(Nc1ccccn1)c1ccc(N=c2[nH]c3nc4ccccc4nc3s2)cc1 [Compound 4d, N-(pyridin-2-yl)-4-(thiazolo[4,5-b]quinoxalin-2(3H)-ylideneamino) benzene-sulfonamide]
viability at 0.01 µM (HepG2 cells; 72 h, SRB): 98.55 ± 0.47%
viability at 0.1 µM (HepG2 cells; 72 h, SRB): 98.32 ± 0.97%
viability at 1 µM (HepG2 cells; 72 h, SRB): 98.1 ± 1.8%
viability at 10 µM (HepG2 cells; 72 h, SRB): 6.62 ± 0.5%
viability at 100 µM (HepG2 cells; 72 h, SRB): 3.81 ± 0.24%
IC50 (HepG2 cells; [3]): 4.31 µM
IC50 (HepG2 cells; read-out: suppressing potency on HepG2 cells proliferation): 4.31 µM
CK activity compared to normal values [1]: not significantly different from normal values
CK level compared to IRR non-treated group [1]: did not significantly lower CK level
serum LDH compared to normal values [2]: non-significant deviation from normal LDH values
decrease in serum LDH ([2]; compared to sorafenib treated group): 40.83%
serum catalase activity (serum catalase): normal catalase activity
decrease in Caspase-9 (cardiac caspase-9; compared to control irradiated animals): 20.63%
IC50 (VEGFR-2): 0.061 ± 0.0026 µM
reduction in cardiac TNF-α (cardiac TNF-α): 35.75%
expression of VEGF in liver tissue (hepatic VEGF): promisingly suppressed
times less cytotoxic than sorafenib (H9C2 cells; H9C2 cardiomyocytes): 2.93 times
high level of safety up to (mice): up to 1000 mg/kg

melting point: 223 to 225 °C
IC50 (VEGFR-2): 0.112 ± 0.0048 µM
SMILES: O=S(=O)(Nc1ncccn1)c1ccc(N=c2[nH]c3nc4ccccc4nc3s2)cc1 [Compound 4e, N-(Pyrimidin-2-yl)-4-(thiazolo[4,5-b]quinoxalin-2(3H)-ylideneamino) benzene-sulfonamide]

IC50 (HepG2 cells; [3]): > 100 µM
melting point: 186 to 188 °C
IC50 (VEGFR-2): 0.0833 ± 0.0037 µM
SMILES: Cc1cc(NS(=O)(=O)c2ccc(N=c3[nH]c4nc5ccccc5nc4s3)cc2)no1 [Compound 4f, N-(5-Methylisoxazol-3-yl)-4-(thiazolo[4,5-b]quinoxalin-2(3H)-ylideneamino) benzene-sulfonamide]
viability at 0.01 µM (HepG2 cells; 72 h, SRB): 97.6 ± 1.26%
viability at 0.1 µM (HepG2 cells; 72 h, SRB): 97.1 ± 1.06%
viability at 1 µM (HepG2 cells; 72 h, SRB): 96.6 ± 1.2%
viability at 10 µM (HepG2 cells; 72 h, SRB): 95.5 ± 3%
viability at 100 µM (HepG2 cells; 72 h, SRB): 94 ± 2.03%

melting point: 238 to 240 °C
IC50 (VEGFR-2): 0.0998 ± 0.0043 µM
SMILES: O=S(=O)(Nc1nccs1)c1ccc(N=c2[nH]c3nc4ccccc4nc3s2)cc1 [Compound 4g, N-(Thiazol-2-yl)-4-(thiazolo[4,5-b]quinoxalin-2(3H)-ylideneamino) benzene-sulfonamide]

melting point: 199 to 201 °C
IC50 (VEGFR-2): 0.217 ± 0.0094 µM
SMILES: Cc1ccnc(NS(=O)(=O)c2ccc(N=c3[nH]c4nc5ccccc5nc4s3)cc2)n1 [Compound 4h, N-(4-Methylpyrimidin-2-yl)-4-(thiazolo[4,5-b]quinoxalin-2(3H)-ylideneamino)-benzenesulfonamide]

melting point: 246 to 248 °C
IC50 (VEGFR-2): 0.288 ± 0.013 µM
SMILES: Cc1cc(C)nc(NS(=O)(=O)c2ccc(N=c3[nH]c4nc5ccccc5nc4s3)cc2)n1 [Compound 4i, N-(4,6-Dimethylpyrimidin-2-yl)-4-(thiazolo[4,5-b]quinoxalin-2(3H)-ylideneamino) benzenesulfonamide]

melting point: 249 to 251 °C
IC50 (VEGFR-2): 0.368 ± 0.016 µM
SMILES: COc1cc(NS(=O)(=O)c2ccc(N=c3[nH]c4nc5ccccc5nc4s3)cc2)nc(OC)n1 [Compound 4j, N-(2,6-Dimethoxypyrimidin-4-yl)-4-(thiazolo[4,5-b]quinoxalin-2(3H)-ylidene-amino)-benzenesulfonamide]

IC50 (HepG2 cells; [3]): 2.97 µM
increment in CK enzymatic activity ([1]; vs normal): 35.88%
increase in serum LDH ([2]; vs normal): 106.06%
decrease in serum catalase activity (serum catalase; vs normal): 6.19%
increase in cardiac caspase-9 levels (cardiac caspase-9; over normal values): 29.83%
reduction in cardiac TNF-α (cardiac TNF-α): 31.87%
SMILES: CNC(=O)c1cc(Oc2ccc(NC(=O)Nc3ccc(Cl)c(C(F)(F)F)c3)cc2)ccn1 [Sorafenib, reference compound]
viability at 0.01 µM (HepG2 cells; 72 h, SRB): 99.58 ± 0.94%
viability at 0.1 µM (HepG2 cells; 72 h, SRB): 98.2 ± 3.19%
viability at 1 µM (HepG2 cells; 72 h, SRB): 87.1 ± 2.02%
viability at 10 µM (HepG2 cells; 72 h, SRB): 11.3 ± 0.31%
viability at 100 µM (HepG2 cells; 72 h, SRB): 4.05 ± 0.1%
expression of VEGF in liver tissue (hepatic VEGF): promisingly suppressed
IC50 (H9C2 cells): 33.5 µM
IC50 (H9C2 cells; listed as sorafenib): 98.1 µM
